{"source": "patent US5328902A", "about": "“7-(substituted)-9-[(substituted glycyl)amido]-6-demethyl-6-deoxytetracyclines” (American Cyanamid Co., priority 1992, dated 1994)", "key": {"E. coli UBMS 88-1 Tet B": {"system": "E. coli UBMS 88-1 Tet B", "assay": "microbe, parasite or virus in culture", "format": "cell-based", "settings": "E. coli UBMS 88-1 Tet B; 18 hours at 35° C."}, "E. coli J3272 Tet sens.": {"system": "E. coli J3272 Tet sens.", "assay": "MIC, agar dilution", "format": "cell-based"}, "E. coli PRP1 Tet A": {"system": "E. coli PRP1 Tet A", "assay": "microbe, parasite or virus in culture", "format": "cell-based", "settings": "E. coli PRP1 Tet A"}, "[1]": {"system": "E. coli MC 4100 TNIOC Tet B", "assay": "microbe, parasite or virus in culture", "format": "cell-based", "settings": "E. coli MC 4100 TNIOC Tet B"}, "E. coli UBMS 89-1 Tet M": {"system": "E. coli UBMS 89-1 Tet M", "assay": "microbe, parasite or virus in culture", "format": "cell-based", "settings": "E. coli UBMS 89-1 Tet M"}, "[2]": {"system": "E. coli UBMS 89-2 Tet sens.", "assay": "MIC, agar dilution", "format": "cell-based", "settings": "E. coli UBMS 89-2 Tet sens."}, "E. coli UBMS 90-4 Tet M": {"system": "E. coli UBMS 90-4 Tet M", "assay": "microbe, parasite or virus in culture", "format": "cell-based", "settings": "E. coli UBMS 90-4 Tet M"}, "E. coli UBMS 90-5": {"system": "E. coli UBMS 90-5", "assay": "MIC, agar dilution", "format": "cell-based"}, "E. coli J3272 Tet D": {"system": "E. coli J3272 Tet D", "assay": "microbe, parasite or virus in culture", "format": "cell-based", "settings": "E. coli J3272 Tet D"}, "S. mariescens FPOR 8733": {"system": "S. mariescens FPOR 8733", "assay": "MIC, agar dilution", "format": "cell-based"}, "[3]": {"system": "Ps. acruginosa ATCC 27853", "assay": "MIC, agar dilution", "format": "cell-based", "settings": "Ps. acruginosa ATCC 27853"}, "S. aureus UBMS 88-4": {"system": "S. aureus UBMS 88-4", "assay": "MIC, agar dilution", "format": "cell-based", "settings": "S. aureus UBMS 88-4"}, "[4]": {"system": "S. aureus UBMS 88-7 Tet K", "assay": "microbe, parasite or virus in culture", "format": "cell-based", "settings": "S. aureus UBMS 88-7 Tet K"}, "[5]": {"system": "S. aureus UBMS 90-1 Tet M", "assay": "microbe, parasite or virus in culture", "format": "cell-based", "settings": "S. aureus UBMS 90-1 Tet M"}, "S. aureus UBMS 90-3": {"system": "S. aureus UBMS 90-3", "assay": "MIC, agar dilution", "format": "cell-based", "settings": "S. aureus UBMS 90-3"}, "[6]": {"system": "S. aureus UBMS 90-2 Tet M", "assay": "microbe, parasite or virus in culture", "format": "cell-based", "settings": "S. aureus UBMS 90-2 Tet M"}, "S. aureus IVES 2943": {"system": "S. aureus IVES 2943", "assay": "MIC, agar dilution", "format": "cell-based", "settings": "S. aureus IVES 2943"}, "S. aureus ROSE (MP)": {"system": "S. aureus ROSE (MP)", "assay": "MIC, agar dilution", "format": "cell-based", "settings": "S. aureus ROSE (MP)"}, "S. aureus SMITH (MP)": {"system": "S. aureus SMITH (MP)", "assay": "MIC, agar dilution", "format": "cell-based", "settings": "S. aureus SMITH (MP)"}, "S. aureus IVES 1 983": {"system": "S. aureus IVES 1 983", "assay": "MIC, agar dilution", "format": "cell-based", "settings": "S. aureus IVES 1 983"}, "[7]": {"system": "S. hemolyticus AVHAH 88-3", "assay": "MIC, agar dilution", "format": "cell-based", "settings": "S. hemolyticus AVHAH 88-3"}, "[8]": {"system": "Staphylococcus aureus strain Smith (tetracycline sensitive)", "assay": "In vivo antibacterial evaluation, acute lethal infection in mice", "settings": "animals infected with S. aureus Smith, 10080 min"}, "the ribosome": {"system": "the ribosome", "assay": "Reversibility of binding: bacterial growth resumes after washing", "format": "cell-based", "settings": "bacterial growth resumes when the compound is removed from the cultures by washing", "excerpt": "Therefore, the ability of these compounds to inhibit bacterial growth appears to be a direct consequence of its ability to inhibit protein synthesis at the ribosome level."}, "[9]": {"system": "tetracycline sensitive and resistant Gram-positive and Gram-negative bacteria", "assay": "In vitro antibacterial activity, summary in words of Table I", "format": "cell-based"}, "[10]": {"system": "Wild Type S30 (wild type ribosomes, E. coli strain MRE600, tetracycline sensitive)", "assay": "E. coli in vitro protein translation system, wild type S30"}}, "data": [{"smiles": "CC1CCN(CC(=O)Nc2cc(N(C)C)c3c(c2O)C(=O)C2=C(O)C4(O)C(=O)C(C(N)=O)=C(O)C(N(C)C)C4CC2C3)CC1.Cl.Cl", "note": "(stereo not drawn) [G, [7S-(7alpha,10aalpha)]-N-[9-(Aminocarbonyl)4,7-bis(dimethylamino)-5,5a,6,6a,7,10,10a,12-octahydro-1,8,10a,ll-tetrahydroxy-10,12-dioxo-2-naphthacenyl]-4-methyl-l-piperidineacetamide dihydrochloride]", "values": [{"measurement": "MIC", "setting": "E. coli UBMS 88-1 Tet B", "value": 2, "unit": "µg/mL"}, {"measurement": "MIC", "setting": "E. coli J3272 Tet sens.", "value": 1, "unit": "µg/mL"}, {"measurement": "MIC", "setting": "E. coli PRP1 Tet A", "value": 2, "unit": "µg/mL"}, {"measurement": "MIC", "setting": "[1]", "value": 2, "unit": "µg/mL"}, {"measurement": "MIC", "setting": "E. coli UBMS 89-1 Tet M", "value": 0.5, "unit": "µg/mL"}, {"measurement": "MIC", "setting": "[2]", "value": 2, "unit": "µg/mL"}, {"measurement": "MIC", "setting": "E. coli UBMS 90-4 Tet M", "value": 1, "unit": "µg/mL"}, {"measurement": "MIC", "setting": "E. coli UBMS 90-5", "value": 2, "unit": "µg/mL"}, {"measurement": "MIC", "setting": "E. coli J3272 Tet D", "value": 0.25, "unit": "µg/mL"}, {"measurement": "MIC", "setting": "S. mariescens FPOR 8733", "value": 16, "unit": "µg/mL"}, {"measurement": "MIC", "setting": "[3]", "value": 32, "unit": "µg/mL"}, {"measurement": "MIC", "setting": "S. aureus UBMS 88-4", "value": 0.5, "unit": "µg/mL"}, {"measurement": "MIC", "setting": "[4]", "value": 0.5, "unit": "µg/mL"}, {"measurement": "MIC", "setting": "[5]", "value": 0.5, "unit": "µg/mL"}, {"measurement": "MIC", "setting": "S. aureus UBMS 90-3", "value": 0.5, "unit": "µg/mL"}, {"measurement": "MIC", "setting": "[6]", "value": 0.5, "unit": "µg/mL"}, {"measurement": "MIC", "setting": "S. aureus IVES 2943", "value": 0.5, "unit": "µg/mL"}, {"measurement": "MIC", "setting": "S. aureus ROSE (MP)", "value": 1, "unit": "µg/mL"}, {"measurement": "MIC", "setting": "S. aureus SMITH (MP)", "value": 0.5, "unit": "µg/mL"}, {"measurement": "MIC", "setting": "S. aureus IVES 1 983", "value": 0.5, "unit": "µg/mL"}, {"measurement": "MIC", "setting": "[7]", "value": 1, "unit": "µg/mL"}, {"measurement": "ED50", "setting": "[8]; administered intravenously", "value": "1 to 2", "unit": "mg/kg"}, {"measurement": "ED50", "setting": "[8]; given orally", "value": "4 to 8", "unit": "mg/kg"}, {"measurement": "reversibility of binding to the ribosome", "setting": "the ribosome", "value": "bind reversibly"}, {"measurement": "activity against E. coli tetA, E. coli tetC and E. coli tetD", "setting": "[9]", "value": "good activity"}, {"measurement": "in vitro activity against tetracycline resistant strains containing tetM and tetB resistance determinants", "setting": "[9]; S. aureus UBMS 88-5, 90-1, 90-2, E. coli UBMS 89-1, 90-4, 88-1, TN10C tetB", "value": "excellent"}, {"measurement": "activity against recently isolated bacteria from clinical sources compared with minocycline", "setting": "[9]; clinical isolates", "value": "superior to that of minocycline"}, {"measurement": "activity against susceptible strains compared with minocycline", "setting": "[9]; susceptible strains", "value": "equallyas effective as minocycline"}, {"measurement": "% Inhibition Wild Type S30", "setting": "[10]; Conc. 0.06 mg/ml", "value": 90, "unit": "%"}, {"measurement": "% Inhibition Wild Type S30", "setting": "[10]; Conc. 1.0 mg/ml", "value": 99, "unit": "%"}, {"measurement": "inhibition of protein synthesis occuring on wild type ribosomes", "setting": "[10]; coupled transcription and translation system", "value": "effectively inhibit protein synthesis"}]}]}
